Values joined by “and” are separate entries in the source; they are usually repeats but may differ in a detail not shown here. Identical values can stand only once. Like-named read-outs stand apart in the source and are kept apart here.
Key:
Can f 1 [1] = molecular target: T1, Can f 1 (Canis lupus familiaris, UniProt O18873); experiment: Competitive fluorescence-quenching assay, Can f 1; assay type: binding, dog; settings: for inhibition at 50 µM: read-out: Mean fluorescence inhibition
T1 construct: made in house; host or cells: E. coli Rosetta-gami 2(DE3)
T1 sequence (O18873 19-174): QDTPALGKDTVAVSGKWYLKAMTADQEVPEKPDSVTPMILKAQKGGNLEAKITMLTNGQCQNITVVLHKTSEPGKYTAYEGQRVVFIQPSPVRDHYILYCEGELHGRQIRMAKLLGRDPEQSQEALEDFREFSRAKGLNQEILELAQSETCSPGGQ
Experimental: (§1) Fluorescence quenching assays were performed as previously described ([45]), with modifications. Fluorochromes and ligands were purchased from Sigma Aldrich (Steinheim, Germany), Carl Roth (Karlsruhe, Germany) and TCI Europe N.V. (Zwijndrecht, Belgium).
(§2) Stock solutions were prepared at a concentration of 10 mM in 100% ethanol for the fluorochromes 1-aminoanthracene (1-AMA), 8-anilino-1-naphthalensulfonic acid (1,8-ANS) and for all ligands, and in 100% methanol for n-phenyl-1-naphthylamine (1-NPN), respectively. Iron catecholate ligands (siderophores) were prepared as previously described ([46]). Fluorochrome-protein complexes were analyzed at an equimolar concentration of 5 μM in PBS with 5% ethanol in a volume of 100 μL per well in black 96-well non-binding microplates (Greiner Bio-One GmbH, Frickenhausen, Germany). Solutions containing only protein or the respective fluorescent probe in PBS with 5% ethanol served as controls. Fluorochrome-protein complexes were incubated with orbital shaking for 10 min at 500 rpm at room temperature (RT) before measurement using the fluorescence reader TECAN Infinite 200 Pro (Tecan Trading AG, Switzerland). Excitation wavelengths were fixed at 380 nm for 1-AMA and 1,8-ANS, and 337 nm for 1-NPN. Fluorescence emission spectra were recorded in 5 nm steps between 420 and 560 nm for 1-AMA and 1,8-ANS and between 380 and 500 nm for 1-NPN. The establishment of fluorescent quenching assay parameters for each allergen is explained in the results Section Fluorescence-quenching assay set up. Binding affinities were analyzed by non-linear regression in GraphPad Prism Version 9.3.1 (GraphPad Software, LLC). For the ligand competition assays, ligands were added to fluorochrome-allergen complexes with a final buffer composition of 5% ethanol in PBS in a volume of 100 μL and incubated for 30 min at 500 rpm at RT and further equilibrated for another 30 min without shaking before fluorescence measurement.
(§3) The binding affinities of non-fluorescent ligands is inferred to by their ability to compete and displace the fluorochromes bound to the allergen at a certain concentration. This leads to a measurable decrease in fluorescence intensity that will be expressed as fluorescence inhibition (Figure 6). For a given allergen, the ligand with the strongest inhibition has the highest binding affinity. […] Competitive ligand binding was analyzed by non-linear regression and inhibitory dissociation constants (Ki) were calculated.

human LCN1 [2] = molecular target: T2, human LCN1 (Homo sapiens, UniProt P31025); experiment: Competitive fluorescence-quenching assay, LCN1; assay type: binding
T2 construct: made in house; host or cells: E. coli Rosetta-gami 2(DE3)
T2 sequence (P31025 19-176): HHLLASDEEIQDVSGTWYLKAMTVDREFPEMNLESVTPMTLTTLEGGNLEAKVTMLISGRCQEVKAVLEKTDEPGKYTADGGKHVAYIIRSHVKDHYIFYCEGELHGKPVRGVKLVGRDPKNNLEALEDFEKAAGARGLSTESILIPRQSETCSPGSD
Experimental: as §1, §2, §3

Cav p 1.0101 = Cav p 1.0101 (Cavia porcellus, UniProt A0A484HM70, S19A); experiment: Competitive fluorescence-quenching assay, Cav p 1.0101; assay type: binding, guinea pig
Sequence of Cav p 1.0101 (A0A484HM70 entry or part of it S19A): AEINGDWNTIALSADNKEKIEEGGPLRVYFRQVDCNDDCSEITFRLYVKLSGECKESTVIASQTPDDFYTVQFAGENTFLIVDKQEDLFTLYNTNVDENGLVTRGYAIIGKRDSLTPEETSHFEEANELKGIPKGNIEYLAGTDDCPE
Experimental: as §1, §2, §3

Cav p 1.0201 = Cav p 1.0201 (Cavia porcellus, UniProt A0A484HRI4); experiment: Competitive fluorescence-quenching assay, Cav p 1.0201; assay type: binding, guinea pig
Sequence of Cav p 1.0201 (A0A484HRI4 entry or part of it): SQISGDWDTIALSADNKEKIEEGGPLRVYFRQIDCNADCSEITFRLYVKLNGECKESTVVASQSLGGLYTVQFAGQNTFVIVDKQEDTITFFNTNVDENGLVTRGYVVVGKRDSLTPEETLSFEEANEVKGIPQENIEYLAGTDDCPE
Experimental: as §1, §2, §3

Ory c 2 = experiment: Competitive fluorescence-quenching assay, Ory c 2; assay type: binding, rabbit
Experimental: as §1, §2, §3

Ory c 3 = Ory c 3 (Oryctolagus cuniculus, UniProt Q9GK63+Q9GK67); experiment: Competitive fluorescence-quenching assay, Ory c 3; assay type: binding, rabbit; settings: 5 μM Ory c 3-1-AMA complex, 50 μM ligand, n = 2; read-out: Mean fluorescence inhibition
Sequence of Ory c 3 (Q9GK67 entry or part of it): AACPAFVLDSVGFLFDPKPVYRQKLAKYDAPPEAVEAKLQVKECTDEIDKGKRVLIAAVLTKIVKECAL
Sequence of Ory c 3 (Q9GK63 entry or part of it): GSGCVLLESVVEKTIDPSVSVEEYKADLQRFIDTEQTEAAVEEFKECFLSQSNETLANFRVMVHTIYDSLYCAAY
Experimental: as §1, §2, §3

Fel d 1 [3] = molecular target: T3, Fel d 1 (Felis catus, UniProt P30438+P30440); experiment: Competitive fluorescence-quenching assay, Fel d 1; assay type: binding, cat; settings: 5 μM Fel d 1 + 1,8-ANS complex, 100 μM ligand; read-out: Mean fluorescence inhibition
T3 construct: polyhistidine tag (C); made in house; host or cells: E. coli Rosetta-gami 2
T3 sequence (P30438+P30440 with tags, fused parts or gaps): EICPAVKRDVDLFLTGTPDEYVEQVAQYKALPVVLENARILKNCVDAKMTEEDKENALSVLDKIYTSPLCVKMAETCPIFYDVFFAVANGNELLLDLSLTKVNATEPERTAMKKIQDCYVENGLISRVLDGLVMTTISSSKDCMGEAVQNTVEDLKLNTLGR
Experimental: as §1, §2, §3

Fel d 4 = molecular target: T4, Fel d 4 (Felis catus, UniProt Q5VFH6); experiment: Fluorochrome binding to Fel d 4 (emission spectra and titration); design: species or system cat; settings: for Increase of fluorescence intensity upon binding: 5 μM Fel d 4 with 5 μM fluorochrome
T4 construct: polyhistidine tag (C); made in house; host or cells: E. coli Rosetta-gami 2
T4 sequence (Q5VFH6 16-186): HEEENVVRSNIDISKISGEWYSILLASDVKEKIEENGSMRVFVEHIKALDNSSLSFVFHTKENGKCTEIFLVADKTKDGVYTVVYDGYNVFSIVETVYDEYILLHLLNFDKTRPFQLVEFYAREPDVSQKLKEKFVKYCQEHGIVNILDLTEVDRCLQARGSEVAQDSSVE
Experimental: as §2
(§4) We established four specific parameters for each allergen to set up a fluorescence quenching assay for screening a large array of potential ligands: (i) a compatible fluorochrome, (ii) the optimal emission wavelength to analyze the fluorescence intensities of the fluorochrome-allergen complex, (iii) the binding affinities of the fluorochrome-allergen complex (Kd values) and (iv) optimal fluorochrome concentrations (EC50 values).
(§5) For each allergen, we identified a suitable fluorescence probe by adding equimolar concentrations of either 1-AMA or 1,8-ANS to the recombinant proteins. […] 1-AMA was chosen for the guinea pig lipocalin Cav p 1 isoallergens, rabbit lipocalin Ory c 2, and rabbit secretoglobin Ory c 3. Fluorescence intensities increased 20–60-fold upon binding. While the emission maxima shifted from 565 to 485 nm for lipocalin fluorochrome-allergen pairs, the blue shift was less pronounced for the Ory c 3 secretoglobin-1-AMA complex to 505 nm (Figure 4B). […] Respective Kd were calculated after background subtraction (Figure 4B). As ethanol gave a high background with 1-NPN, these experiments were carried out with methanol to reduce the signal-to-noise-ratio.
(§6) We evaluated the binding affinities of the fluorochromes to the allergens by dose-dependent titration curves. Increasing fluorochrome concentrations were added to a fixed protein concentration of 5 μM until saturation (Figure 5). Fluorescence intensities were recorded at specific emission maxima for each fluorochrome-allergen complex, determined using the emission spectra shown in Figure 4. We analyzed the specific binding of fluorochrome-allergen complexes by non-linear regression and calculated equilibrium dissociation constants (Kd) and EC50 values (Table 2). EC50 values are equal to fluorochome concentrations in which half of the allergen binding sites are saturated and these concentrations were used in subsequent ligand competition assays. We chose a one-site specific binding model for all allergens, except for human LCN1, where multiple binding site analysis emerged as the model of best fit and two Kd values were calculated. Evidence for internal and external binding sites for 1,8-ANS and LCN1 were already reported ([58]).

Can f 6 = molecular target: T5, Can f 6 (Canis lupus familiaris, UniProt H2B3G5); experiment: Fluorochrome binding to Can f 6 (emission spectra and titration); design: species or system dog; settings: for Increase of fluorescence intensity upon binding: 5 μM Can f 6 with 5 μM fluorochrome
T5 construct: polyhistidine tag (C); made in house; host or cells: E. coli Rosetta-gami 2
T5 sequence (H2B3G5 16-190): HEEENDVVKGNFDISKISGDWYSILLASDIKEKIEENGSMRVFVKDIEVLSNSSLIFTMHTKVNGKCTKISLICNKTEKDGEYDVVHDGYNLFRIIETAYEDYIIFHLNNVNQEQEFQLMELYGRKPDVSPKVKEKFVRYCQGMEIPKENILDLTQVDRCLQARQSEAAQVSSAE
Experimental: as §2, §4, §5, §6

Can f 1 [4] = molecular target: T1, Can f 1; experiment: Fluorochrome binding to Can f 1 (emission spectra and titration); design: species or system dog
Experimental: as §2, with “measurement. […]” for “measurement.”
For each allergen, we identified a suitable fluorescence probe by adding equimolar concentrations of either 1-AMA or 1,8-ANS to the recombinant proteins. […] Fluorescence intensities increased 20–60-fold upon binding. […] Respective Kd were calculated after background subtraction (Figure 4B). […]
We evaluated the binding affinities of the fluorochromes to the allergens by dose-dependent titration curves. […]

human LCN1 [5] = molecular target: T2, human LCN1; experiment: Fluorochrome binding to LCN1 (emission spectra and titration); settings: for Kd: multiple binding site analysis
Experimental: as §2, §4
as §5, with “As ethanol gave a high background with 1-NPN, these experiments were carried out with methanol to reduce the signal-to-noise-ratio.” left out
We evaluated the binding affinities of the fluorochromes to the allergens by dose-dependent titration curves. […] Fluorescence intensities were recorded at specific emission maxima for each fluorochrome-allergen complex, determined using the emission spectra shown in Figure 4. We analyzed the specific binding of fluorochrome-allergen complexes by non-linear regression and calculated equilibrium dissociation constants (Kd) and EC50 values (Table 2). […] We chose a one-site specific binding model for all allergens, except for human LCN1, where multiple binding site analysis emerged as the model of best fit and two Kd values were calculated. […]

Fel d 1 [6] = molecular target: T3, Fel d 1; experiment: Fluorochrome binding to Fel d 1 (emission spectra and titration); design: species or system cat; settings: for Increase of fluorescence intensity upon binding: 5 μM Fel d 1 with 5 μM fluorochrome
Experimental: as §2, §4, §5, §6

[7] = 5 μM Can f 1-1,8-ANS complex, 50 μM ligand, n = 2
[8] = 5 μM LCN1-1,8-ANS complex, 50 μM ligand, n = 2

CC(C)=CCC/C(C)=C/CC/C(C)=C/CO [Farnesol, farnesol]
inhibition at 50 µM (Can f 1 [1]; [7]): 43.1%
inhibition at 50 µM (human LCN1 [2]; [8]): 90.9%
inhibition at 50 µM (Cav p 1.0101; 5 μM Cav p 1.0101-1-AMA complex, 50 μM ligand, n = 2): 98.9%
Ki (Cav p 1.0101; Ki (printed in Figure 6D), Cav p 1.0101, titration 0–60 μM ligand, unit inferred): 0.58 µM
Ki (Cav p 1.0101; Ligand inhibition constant Ki, 5 μM Cav p 1.0101, fluorochrome 1-AMA): 0.6 µM
Ki (Cav p 1.0201; 5 μM Cav p 1.0201, fluorochrome 1-AMA, read-out: Ligand inhibition constant Ki): 0.6 µM
inhibition at 50 µM (Cav p 1.0201; 5 μM Cav p 1.0201-1-AMA complex, 50 μM ligand, n = 2): 95.5%
Ki (Ory c 2; 5 μM Ory c 2, fluorochrome 1-AMA, read-out: Ligand inhibition constant Ki): 1.1 µM
Mean fluorescence inhibition (Ory c 2; 5 μM Ory c 2-1-AMA complex, 50 μM ligand, n = 2): 96.0%
inhibition at 50 µM (Ory c 3): 91.3%
inhibition at 100 µM (Fel d 1 [3]): 11.2%

CN(C)c1cccc2c(S(=O)(=O)NCCCCCCCCCCC(=O)O)cccc12 [DAUDA, 11-(Dansylamino)undecanoic acid]
Increase of fluorescence intensity upon binding (Fel d 4): neither reacted
Increase of fluorescence intensity upon binding (Can f 6): neither reacted

O=S(=O)(O)c1cccc2cccc(Nc3ccccc3)c12 [1,8-ANS, 8-anilino-1-naphthalensulfonic acid]
EC50 (Can f 1 [4]; 5 μM Can f 1, half of the allergen binding sites saturated, read-out: EC50 fluorochrome concentration): 6.4 µM
Kd (Can f 1 [4]; 5 μM Can f 1, one-site specific binding, read-out: Fluorochrome dissociation constant Kd): 6.8 µM
Increase of fluorescence intensity upon binding (Can f 1 [4]; 5 μM Can f 1 with 5 μM fluorochrome): > 100 fold
Kd (human LCN1 [5]; 5 μM LCN1, first binding site, read-out: Fluorochrome dissociation constant Kd): 5 µM
Kd (human LCN1 [5]; 5 μM LCN1, second binding site, read-out: Fluorochrome dissociation constant Kd, second binding site): 64.7 µM
EC50 (human LCN1 [5]; 5 μM LCN1, read-out: EC50 fluorochrome concentration): 7.1 µM
Increase of fluorescence intensity upon binding (human LCN1 [5]; 5 μM LCN1 with 5 μM fluorochrome): > 100 fold
Kd at the second binding site relative to the first (higher Kd) (human LCN1 [5]; LCN1): 13 fold
Kd (Fel d 1 [6]; 5 μM Fel d 1, one-site specific binding, read-out: Fluorochrome dissociation constant Kd): 149 µM
EC50 (Fel d 1 [6]; 5 μM Fel d 1, read-out: EC50 fluorochrome concentration): 99.8 µM
Increase of fluorescence intensity upon binding (Fel d 1 [6]): 8 fold
Increase of fluorescence intensity upon binding (Fel d 4): neither reacted
Increase of fluorescence intensity upon binding (Can f 6): neither reacted

CCCCCCCCCCCCCCC(=O)O [Pentadecanoic acid, pentadecanoic acid]
inhibition at 50 µM (Can f 1 [1]): 41.4%
inhibition at 50 µM (human LCN1 [2]; [8]): 88.7%

CCCCCCCCCCCCCC(=O)O [Tetradecanoic acid, tetradecanoic acid]
Ki (Can f 1 [1]; 5 μM Can f 1, fluorochrome 1,8-ANS, read-out: Ligand inhibition constant Ki): 7.4 µM
inhibition at 50 µM (Can f 1 [1]): 60.8%
Ki (human LCN1 [2]; 5 μM LCN1, fluorochrome 1,8-ANS, read-out: Ligand inhibition constant Ki): 1.8 µM
inhibition at 50 µM (human LCN1 [2]; [8]): 91.9%

c1ccc(Nc2cccc3ccccc23)cc1 [1-NPN, n-phenyl-1-naphthylamine]
EC50 (Fel d 1 [6]): 21.1 µM
Kd (Fel d 1 [6]): 35.5 µM
Increase of fluorescence intensity upon binding (Fel d 1 [6]): 2–3 fold
Kd (Fel d 4; 5 μM Fel d 4, one-site specific binding, read-out: Fluorochrome dissociation constant Kd): 81.7 µM
EC50 (Fel d 4; 5 μM Fel d 4, read-out: EC50 fluorochrome concentration): 28 µM
Increase of fluorescence intensity upon binding (Fel d 4): 2–3 fold
Kd (Can f 6; 5 μM Can f 6, Figure 5C, read-out: Kd, one-site fit model of total and non-specific binding): 59.9 µM
Kd (Can f 6; 5 μM Can f 6, one-site specific binding, read-out: Fluorochrome dissociation constant Kd): 34.9 µM
EC50 (Can f 6; 5 μM Can f 6, read-out: EC50 fluorochrome concentration): 20.7 µM
Increase of fluorescence intensity upon binding (Can f 6): 2–3 fold

Lipopolysaccharide
Mean fluorescence inhibition (Can f 1 [1]; [7]): 57.4%
Mean fluorescence inhibition (human LCN1 [2]; [8]): 81% and 81.2%

Reference: publication PMC9385959, “Mammalian derived lipocalin and secretoglobin respiratory allergens strongly bind ligands with potentially immune modulating properties” (Frontiers in Allergy, 2022)
